Experiment [1] relates to Escherichia coli. The experiment can be described thus: microbe, parasite or virus in culture.
Experiment [2] deals with T1, Short transient receptor potential channel 4 (Mus musculus, UniProt Q9QUQ5).
T1 sequence (Q9QUQ5 whole entry): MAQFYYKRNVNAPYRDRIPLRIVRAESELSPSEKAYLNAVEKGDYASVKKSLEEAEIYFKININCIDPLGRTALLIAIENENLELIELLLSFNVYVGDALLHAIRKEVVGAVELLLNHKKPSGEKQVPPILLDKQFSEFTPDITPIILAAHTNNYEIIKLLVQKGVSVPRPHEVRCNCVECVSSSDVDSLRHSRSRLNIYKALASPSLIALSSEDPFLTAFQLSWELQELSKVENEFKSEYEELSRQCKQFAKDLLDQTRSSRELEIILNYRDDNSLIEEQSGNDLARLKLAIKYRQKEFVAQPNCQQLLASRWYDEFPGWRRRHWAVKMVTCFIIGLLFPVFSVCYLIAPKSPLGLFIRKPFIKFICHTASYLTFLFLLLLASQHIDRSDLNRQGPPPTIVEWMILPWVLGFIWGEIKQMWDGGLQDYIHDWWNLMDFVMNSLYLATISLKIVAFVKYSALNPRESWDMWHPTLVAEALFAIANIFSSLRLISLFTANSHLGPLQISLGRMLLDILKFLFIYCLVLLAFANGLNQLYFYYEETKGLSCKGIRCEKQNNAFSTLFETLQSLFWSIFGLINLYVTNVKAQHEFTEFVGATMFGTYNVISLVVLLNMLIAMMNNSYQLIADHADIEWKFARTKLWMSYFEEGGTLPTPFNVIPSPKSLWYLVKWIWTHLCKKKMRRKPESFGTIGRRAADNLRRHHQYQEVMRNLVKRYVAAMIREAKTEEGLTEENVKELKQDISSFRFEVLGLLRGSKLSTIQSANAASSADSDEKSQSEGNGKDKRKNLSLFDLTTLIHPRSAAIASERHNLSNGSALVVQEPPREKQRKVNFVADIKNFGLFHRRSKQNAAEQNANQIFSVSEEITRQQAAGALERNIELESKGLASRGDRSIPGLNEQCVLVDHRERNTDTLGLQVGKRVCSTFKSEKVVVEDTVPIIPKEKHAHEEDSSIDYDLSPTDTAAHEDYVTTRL
The experiment can be described thus: mouse TRPC4 channel activators, dose response, cell-based, HEK293 TRPC4/mu-opioid, Fluo-4 calcium (AID 434937). Type of experiment: functional.

Experiment [3] concerns the target Delta-type opioid receptor (Homo sapiens, UniProt P41143). The experiment can be described thus: Counterscreen for agonists of heterodimerization of the mu 1 (OPRM1) and delta 1 (OPRD1) opioid receptors: Luminescence-based cell-based high throughput dose response assay to identify agonists of OPRD1 homodimerization. [Related pubchem assays (depositor defined):AID504326, AID504355, AID504692, AID504904, AID504905]. Type of experiment: functional. In general terms: The purpose of a counterscreen is to sort out artefacts and off-target activity.

A further experiment deals with Mu-type opioid receptor (Homo sapiens, UniProt P35372). The experiment can be described thus: Counterscreen for agonists of heterodimerization of the mu 1 (OPRM1) and delta 1 (OPRD1) opioid receptors: Luminescence-based cell-based high throughput dose response assay to identify agonists of OPRM1 homodimerization. It counts as functional.
Chain of Mu-type opioid receptor (P35372 whole entry): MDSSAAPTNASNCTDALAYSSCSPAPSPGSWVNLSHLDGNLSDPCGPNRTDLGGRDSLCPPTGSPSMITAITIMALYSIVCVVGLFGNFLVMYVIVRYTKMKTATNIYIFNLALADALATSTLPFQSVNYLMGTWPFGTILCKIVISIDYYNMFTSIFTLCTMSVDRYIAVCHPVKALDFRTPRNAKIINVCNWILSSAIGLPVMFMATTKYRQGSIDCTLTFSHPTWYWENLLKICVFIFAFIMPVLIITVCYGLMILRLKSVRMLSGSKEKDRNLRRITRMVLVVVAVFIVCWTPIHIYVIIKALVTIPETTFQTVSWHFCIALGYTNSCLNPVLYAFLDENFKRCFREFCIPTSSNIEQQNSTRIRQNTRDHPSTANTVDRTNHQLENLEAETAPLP
Experiment [4] deals with 5-hydroxytryptamine receptor 5A (Homo sapiens, UniProt P47898). The experiment in a line: Counterscreen for agonists of OPRM1-OPRD1 heterodimerization: luminescence-based cell-based high throughput dose response assay to identify agonists of 5-hydroxytryptamine (serotonin) 5A receptor (HTR5A). [Related pubchem assays (depositor defined):AID504326, AID504355, AID504692, AID504904, AID504905]. It counts as functional.
Chain of 5-hydroxytryptamine receptor 5A (P47898 whole entry): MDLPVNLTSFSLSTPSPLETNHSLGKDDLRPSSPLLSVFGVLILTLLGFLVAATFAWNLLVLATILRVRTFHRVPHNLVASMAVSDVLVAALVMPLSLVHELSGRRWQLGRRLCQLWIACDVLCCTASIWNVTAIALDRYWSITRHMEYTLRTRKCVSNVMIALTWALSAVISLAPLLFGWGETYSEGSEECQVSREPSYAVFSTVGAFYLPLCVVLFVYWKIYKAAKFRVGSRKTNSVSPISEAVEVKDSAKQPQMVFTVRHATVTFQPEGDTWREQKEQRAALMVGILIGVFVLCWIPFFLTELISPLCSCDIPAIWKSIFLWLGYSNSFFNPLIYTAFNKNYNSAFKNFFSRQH

The nature of experiment [5]: inhibitors of HIV Env-driven cell fusion, dose response, cherry-pick (AID 652057). Type of experiment: functional, cell-based.
A short description of experiment [6]: CEM21 lymphoblast cell cytotoxicity, dose response, cytotoxicity control for viral fusion inhibitor project, CellTiter-Glo luminescence, cherry-picked (AID 652042).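 Further: potency for signal decrease meaning cytotoxicity.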 It counts as functional, cell-based. Background: In ATP-based viability assays light output follows the ATP content of the culture.
Experiment [7] in a line: ZM109 Env clade C HIV-1 fusion inhibitors, dose response, HeLa effector, CEM target cells, luciferase, cherry-pick (AID 652058). Type of experiment: functional, cell-based.
Experiment [8] in a line: off-target signal loss in HeLa-CEM21 co-culture – HeLa F-luc CTL cells, cherry-picked, counter-screen for HIV-1 Env fusion inhibitor project, dose response (AID 652040).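 Further: potency for signal decrease marking cytotoxic or nonspecific inhibition.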 Type of experiment: functional, cell-based.
The nature of experiment [9]: inhibitors of clade B AD8 Env fusion, dose response, cell-based, cherry-pick (AID 652062).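 Further: luciferase signal from cell-cell fusion driven by HIV-1 clade B AD8 Env; potency is for inhibitors of fusion seen as a drop in luminescence.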 Type of experiment: functional.
Experiment [10] can be described thus: cells. Type of experiment: functional, cell-based.
A short description of experiment [11]: cells. Type of experiment: functional, cell-based. This is another data set of the same source.
For a further experiment, the target named is Trypsin (Sus scrofa, UniProt P00761). The experiment can be described thus: porcine trypsin inhibitors, dose response, selectivity assay for Rce1 protease inhibitor project, biochemical, quenched peptide fluorescence, cherry-pick (AID 488789).
Chain of Trypsin (P00761 whole entry): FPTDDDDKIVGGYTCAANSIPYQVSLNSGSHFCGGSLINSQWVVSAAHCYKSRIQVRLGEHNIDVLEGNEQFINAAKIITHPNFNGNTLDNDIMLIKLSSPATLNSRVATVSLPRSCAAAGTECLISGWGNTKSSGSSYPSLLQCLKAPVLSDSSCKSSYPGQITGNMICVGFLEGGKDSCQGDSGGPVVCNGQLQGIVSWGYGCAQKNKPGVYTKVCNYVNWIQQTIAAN
In another experiment the target is CAAX prenyl protease 2 (Homo sapiens, UniProt Q9Y256). The experiment can be described thus: human Rce1 protease inhibitors, dose response, biochemical, yeast membranes, quenched-peptide fluorescence, cherry-pick (AID 588849).
Chain of CAAX prenyl protease 2 (Q9Y256 whole entry): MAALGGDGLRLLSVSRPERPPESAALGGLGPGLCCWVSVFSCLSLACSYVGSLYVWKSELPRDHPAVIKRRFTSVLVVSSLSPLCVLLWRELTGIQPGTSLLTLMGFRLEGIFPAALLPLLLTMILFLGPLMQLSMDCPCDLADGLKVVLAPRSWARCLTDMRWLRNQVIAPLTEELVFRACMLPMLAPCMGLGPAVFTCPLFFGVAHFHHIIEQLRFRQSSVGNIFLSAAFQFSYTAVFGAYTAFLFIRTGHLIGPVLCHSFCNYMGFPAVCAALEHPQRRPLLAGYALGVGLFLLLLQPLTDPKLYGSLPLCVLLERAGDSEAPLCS
In a further experiment the test system is HeLa. The experiment in a line: HeLa cell cytotoxicity, dose response, cytotoxicity control for MITF activator project, CellTiter-Glo luminescence, cherry-pick samples (AID 540259). Type of experiment: functional, cell-based. To be noted: Homo sapiens.
Experiment [12] has as its target T2, Endoribonuclease toxin MazF (Escherichia coli K-12, UniProt P0AE70).
T2 sequence (P0AE70 whole entry): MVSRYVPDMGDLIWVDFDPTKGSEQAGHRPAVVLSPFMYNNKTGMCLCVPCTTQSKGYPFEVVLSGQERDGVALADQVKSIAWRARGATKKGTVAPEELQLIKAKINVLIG
The experiment in a line: MazF toxin RNase activators, dose response, biochemical, fluorescence, single-stranded RNA substrate, uHTS hits (AID 588481). Type of experiment: functional.

The target of experiment [13] is T2, Endoribonuclease toxin MazF. The experiment can be described thus: fluorescent RNA oligo signal without MazF, dose response, counter-screen for MazEF activator project, biochemical, fluorescence, single-stranded RNase substrate (AID 588502). It counts as functional.
Experiment [14] has as its target Heat shock protein HSP 90-alpha (Homo sapiens, UniProt P07900). It counts as functional, organism-based.
The subject of experiment [15] is Streptococcus sp. 'group A'. The experiment can be described thus: growth inhibition of control SK(-) GAS strain, dose response, counter-screen for streptokinase expression inhibitor project, luminescence, kanamycin, BacTiterGlo, confirmation (AID 1900). Type of experiment: functional, organism-based.
The nature of experiment [16]: microbe, parasite or virus in culture. It counts as functional. The note with it: Mycobacterium tuberculosis.
Another experiment relates to Streptococcus. The experiment in a line: Group A Streptococcus viability loss, dose response, counter-screen for streptokinase expression inhibitor project, luminescence, BacTiterGlo (AID 1915).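 Further: potency for reduction of bacterial viability or growth.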 Type of experiment: functional, organism-based.
Experiment [17] deals with Escherichia coli. The experiment can be described thus: microbe, parasite or virus in culture. The source holds these as a separate data set.
The next experiment deals with CHO. The experiment can be described thus: cytotoxicity in TLR9-MyD88 CHO cells, dose response, cytotoxicity control for TLR9-MyD88 binding inhibitor project, cell-based, luminescence (AID 588339).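 Further: CHO cells stably coexpressing TLR9 and MyD88 fusions from primary screen; compound exposure lasted 48 hours before viability readout.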 The note with it: Cricetulus griseus. It counts as functional, hamster.
The next experiment has as its target Beta Lactamase (Pseudomonas aeruginosa, UniProt Q932Y6). The experiment in a line: beta-lactamase reporter inhibitor potency, dose response, artefact control for TLR9-MyD88 binding inhibitor project, BLA reporter cells, FRET fluorescence (AID 588341).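 Further: cell based assay in CHO-K1 cells stably expressing beta-lactamase.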 It counts as cell-based.
Another experiment addresses DNA topoisomerase (Yersinia pestis, UniProt A0A2S9PM60). The experiment in a line: Y. pestis Topo-I inhibitors, cleavage product readout, dose response, biochemical, cherry-pick (AID 588525).
A further experiment has as its target NS3 (Hepatitis C virus, UniProt A3EZJ3). The experiment can be described thus: PubChem AID 2173. Also noted: species or system Hepacivirus hominis.
In experiment [18] the target is T3, Low molecular weight phosphotyrosine protein phosphatase (Homo sapiens, UniProt P24666).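 Further: Dose-response confirmation assay measuring inhibition of LMPTP enzyme activity by fluorescence intensity read-out.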
T3 sequence (P24666 whole entry): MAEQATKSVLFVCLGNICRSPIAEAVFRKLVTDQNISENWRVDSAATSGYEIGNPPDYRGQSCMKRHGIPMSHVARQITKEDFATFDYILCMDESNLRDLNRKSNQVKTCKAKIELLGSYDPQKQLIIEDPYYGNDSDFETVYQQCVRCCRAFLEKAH
Type of experiment: functional. To be noted: read-out: IC50_Mean.

A further experiment concerns the target Beta-galactosidase (Escherichia coli, UniProt Q8VNN2). The experiment in a line: PubChem AID 485352. Type of experiment: functional.
Experiment [19] has as its target Type-1 angiotensin II receptor (Homo sapiens, UniProt P30556). The experiment in a line: AT1 receptor antagonists, dose response, selectivity assay for APJ receptor antagonist project, cell-based, uHTS hits (AID 463214).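 Further: antagonist potency against angiotensin II stimulated AT1 response.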 Type of experiment: functional.

The structures appear in SMILES notation. Calls of active or inactive are those of the source.

Chain of Delta-type opioid receptor (P41143 whole entry): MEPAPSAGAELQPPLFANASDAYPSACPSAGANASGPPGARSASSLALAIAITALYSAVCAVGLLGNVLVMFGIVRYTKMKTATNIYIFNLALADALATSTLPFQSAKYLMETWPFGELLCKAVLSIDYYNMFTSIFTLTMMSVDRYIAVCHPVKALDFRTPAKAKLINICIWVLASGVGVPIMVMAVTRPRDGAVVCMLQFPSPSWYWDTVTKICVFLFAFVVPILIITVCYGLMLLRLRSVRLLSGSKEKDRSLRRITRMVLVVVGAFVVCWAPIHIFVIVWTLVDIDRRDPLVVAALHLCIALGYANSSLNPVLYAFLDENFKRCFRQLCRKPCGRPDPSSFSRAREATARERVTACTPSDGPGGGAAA
Chain of DNA topoisomerase (A0A2S9PM60 whole entry): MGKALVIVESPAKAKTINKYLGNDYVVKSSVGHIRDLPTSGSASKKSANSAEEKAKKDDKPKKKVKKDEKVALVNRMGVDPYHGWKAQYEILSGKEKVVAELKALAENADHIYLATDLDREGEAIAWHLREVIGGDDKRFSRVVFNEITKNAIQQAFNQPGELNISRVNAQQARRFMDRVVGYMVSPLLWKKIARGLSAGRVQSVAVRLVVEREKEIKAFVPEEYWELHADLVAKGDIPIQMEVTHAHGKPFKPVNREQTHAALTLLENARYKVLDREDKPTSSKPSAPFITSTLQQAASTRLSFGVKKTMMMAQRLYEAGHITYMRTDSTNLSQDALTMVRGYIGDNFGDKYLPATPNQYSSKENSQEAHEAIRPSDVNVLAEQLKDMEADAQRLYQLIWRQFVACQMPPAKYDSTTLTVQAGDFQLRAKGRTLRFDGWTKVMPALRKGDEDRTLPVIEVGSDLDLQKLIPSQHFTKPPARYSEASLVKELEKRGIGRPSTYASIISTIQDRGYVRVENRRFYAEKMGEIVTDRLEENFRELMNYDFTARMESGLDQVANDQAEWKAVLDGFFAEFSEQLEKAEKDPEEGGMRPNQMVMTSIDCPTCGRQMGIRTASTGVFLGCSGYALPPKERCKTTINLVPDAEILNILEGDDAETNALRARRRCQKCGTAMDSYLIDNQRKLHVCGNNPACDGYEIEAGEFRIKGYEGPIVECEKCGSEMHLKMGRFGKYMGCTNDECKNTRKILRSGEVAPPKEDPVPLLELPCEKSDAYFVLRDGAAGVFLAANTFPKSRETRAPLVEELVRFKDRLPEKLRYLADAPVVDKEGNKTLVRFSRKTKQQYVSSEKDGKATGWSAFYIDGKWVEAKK
Chain of Beta Lactamase (Q932Y6 whole entry): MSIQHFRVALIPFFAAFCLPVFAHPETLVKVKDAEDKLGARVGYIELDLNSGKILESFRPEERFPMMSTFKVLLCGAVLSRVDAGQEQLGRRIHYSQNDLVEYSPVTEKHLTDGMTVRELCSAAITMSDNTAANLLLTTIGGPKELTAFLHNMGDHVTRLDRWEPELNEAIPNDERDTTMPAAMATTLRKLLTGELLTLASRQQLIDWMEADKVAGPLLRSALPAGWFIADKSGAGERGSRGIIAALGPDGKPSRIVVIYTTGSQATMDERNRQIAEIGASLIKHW
Chain of NS3 (A3EZJ3 whole entry): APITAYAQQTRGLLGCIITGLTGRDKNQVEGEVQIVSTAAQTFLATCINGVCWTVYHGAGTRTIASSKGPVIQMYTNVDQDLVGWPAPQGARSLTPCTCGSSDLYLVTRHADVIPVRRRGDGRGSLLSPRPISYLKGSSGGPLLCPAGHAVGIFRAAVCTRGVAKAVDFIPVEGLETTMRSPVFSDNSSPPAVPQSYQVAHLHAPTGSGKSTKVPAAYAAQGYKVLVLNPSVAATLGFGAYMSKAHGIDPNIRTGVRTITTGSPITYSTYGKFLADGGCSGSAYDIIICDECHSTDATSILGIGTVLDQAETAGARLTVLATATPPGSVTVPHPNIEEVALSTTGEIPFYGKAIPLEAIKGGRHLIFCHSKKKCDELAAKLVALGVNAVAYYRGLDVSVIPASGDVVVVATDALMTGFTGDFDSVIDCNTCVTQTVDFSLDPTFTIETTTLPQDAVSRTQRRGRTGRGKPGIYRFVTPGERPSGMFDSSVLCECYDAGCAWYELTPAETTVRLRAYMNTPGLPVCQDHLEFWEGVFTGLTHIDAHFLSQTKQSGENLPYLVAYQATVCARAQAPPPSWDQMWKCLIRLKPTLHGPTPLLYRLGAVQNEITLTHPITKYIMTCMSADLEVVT
Chain of Type-1 angiotensin II receptor (P30556 whole entry): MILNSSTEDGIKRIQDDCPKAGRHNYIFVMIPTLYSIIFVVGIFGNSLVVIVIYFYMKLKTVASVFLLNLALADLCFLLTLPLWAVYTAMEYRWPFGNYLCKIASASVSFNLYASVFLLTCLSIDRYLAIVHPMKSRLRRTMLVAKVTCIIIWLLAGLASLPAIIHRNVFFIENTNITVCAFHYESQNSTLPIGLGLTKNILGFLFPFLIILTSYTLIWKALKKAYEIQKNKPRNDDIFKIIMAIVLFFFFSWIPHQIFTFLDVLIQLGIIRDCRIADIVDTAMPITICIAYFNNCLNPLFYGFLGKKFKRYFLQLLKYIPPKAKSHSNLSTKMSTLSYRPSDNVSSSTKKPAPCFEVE
Chain of Beta-galactosidase (Q8VNN2 whole entry): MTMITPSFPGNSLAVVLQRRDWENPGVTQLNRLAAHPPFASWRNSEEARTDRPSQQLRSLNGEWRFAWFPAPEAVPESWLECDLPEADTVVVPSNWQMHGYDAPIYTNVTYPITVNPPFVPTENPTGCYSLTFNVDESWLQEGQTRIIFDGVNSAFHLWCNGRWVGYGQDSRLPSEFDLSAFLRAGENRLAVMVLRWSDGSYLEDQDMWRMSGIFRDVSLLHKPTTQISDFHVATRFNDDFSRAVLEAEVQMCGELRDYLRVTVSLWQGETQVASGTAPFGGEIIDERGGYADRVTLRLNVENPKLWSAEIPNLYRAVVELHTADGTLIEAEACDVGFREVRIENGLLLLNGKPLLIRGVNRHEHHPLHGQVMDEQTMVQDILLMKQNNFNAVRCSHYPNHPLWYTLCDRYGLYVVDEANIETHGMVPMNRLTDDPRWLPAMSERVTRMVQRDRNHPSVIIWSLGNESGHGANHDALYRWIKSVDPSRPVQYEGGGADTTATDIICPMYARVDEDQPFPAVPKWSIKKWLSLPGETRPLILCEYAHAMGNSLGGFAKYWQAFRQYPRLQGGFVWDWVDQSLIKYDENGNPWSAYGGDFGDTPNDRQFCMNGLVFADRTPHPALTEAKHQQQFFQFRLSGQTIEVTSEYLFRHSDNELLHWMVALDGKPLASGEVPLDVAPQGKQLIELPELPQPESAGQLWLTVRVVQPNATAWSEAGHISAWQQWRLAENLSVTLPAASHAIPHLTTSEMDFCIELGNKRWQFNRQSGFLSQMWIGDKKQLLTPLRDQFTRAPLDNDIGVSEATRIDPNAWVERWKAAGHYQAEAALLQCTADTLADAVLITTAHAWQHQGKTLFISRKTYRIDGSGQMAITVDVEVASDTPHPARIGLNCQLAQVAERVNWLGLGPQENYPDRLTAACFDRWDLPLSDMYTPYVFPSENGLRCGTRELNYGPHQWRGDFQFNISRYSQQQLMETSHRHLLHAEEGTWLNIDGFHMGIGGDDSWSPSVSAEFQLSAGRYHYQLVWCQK

In the case of `CC(=O)Oc1ccc2c(c1)OC(c1ccccc1)CC21CC(C)(C)N=C(S)N1` (centres undefined), in the experiment on Escherichia coli [1], the AC50 (as a rule, the midpoint of the concentration-response curve, whichever way the signal moves) was 31.7 µM (active).

Turning to `COc1ccc(CNCCc2c[nH]c3ccccc23)c(OC)c1C`, the EC50 (commonly the concentration needed to bring the measured effect to its halfway point) was 0.841 µM (active) in experiment [2], > 92.5 µM (inactive) in [3], 59.5 µM (inactive) at Mu-type opioid receptor and 78.4 µM (inactive) in experiment [4]. For the same compound, the AC50 in experiment [5] was 2.44 µM (active); in experiment [6], 24.9 µM (active); in experiment [7], 7.75 µM (active); in [8], 5.48 µM (active); in experiment [9], 14.3 µM (active).

Turning to `Cc1ccc(C2(O)C[N+](c3ccccc3C)=C3SCCN32)cc1` (centres undefined), the EC50 in “cells [10]” is > 350 µM (not active); in “cells [11]”, > 350 µM (not active); in [2], 0.376 µM (active); in experiment [3], > 92.5 µM (inactive); on Mu-type opioid receptor it was 2.83 µM (active); in experiment [4], > 92.5 µM (inactive).

For `Cc1c(C)c2c(OCC(=O)NCc3ccncc3)cc3c(c2oc1=O)CCC(C)(C)O3`, the AC50 on Trypsin is 5.4 µM (active); at CAAX prenyl protease 2, 0.759 µM (active).

Regarding `COc1ccc2c(c1)oc(=O)c1cc(OC)ccc12`, the AC50 with HeLa was 46.8 µM (active).

In the case of `Cc1cccc(NC(=O)c2ccc(NCCc3ccccc3)c([N+](=O)[O-])c2)c1`, the EC50 in experiment [12] is 17.9 µM (active); in experiment [13], > 99 µM (inactive).

Take `COC[C@H]1OC(=O)c2coc3c2[C@@]1(C)C1=C(C3=O)[C@@H]2CCC(=O)[C@@]2(C)C[C@H]1OC(C)=O` [WORTMANNIN]: the EC50 in experiment [12] and in experiment [13] was > 99 µM (inactive) throughout. For the same compound, the AC50 in [14] was 0.363 µM (active).

Turning to `c1ccc2cc(C3CCCCC3)ncc2c1`, in the experiment with HeLa, the AC50 was 36.7 µM (active).

On to `CN(C)[C@@H]1C(=O)C(C(N)=O)=C(O)[C@@]2(O)C(O)=C3C(=O)c4c(O)cccc4[C@@](C)(O)C3C[C@@H]12` (some centres undefined), for which the concentration for a half-maximal effect (EC50) was 0.099 µM (active) in experiment [15] and 0.098 µM (active) with Streptococcus. In addition, the CC50 in [16] was > 40 µM (active). The values for the AC50 in the experiment with Escherichia coli [1] and in the experiment on Escherichia coli [17] were 19.9 µM (active) and 1.17 µM (active), respectively.

For the compound `Nc1c(C(=O)Nc2ccccc2F)sc2nc(-c3cccnc3)ccc12`, the IC50 in the experiment with CHO was 21.7 µM (inactive); at Beta Lactamase, 14 µM (inactive).

As to `Cc1ccc(CSC2=Nc3ccccc3C3=NC(=O)CN23)cc1`, the AC50 at DNA topoisomerase was 2.02 µM (active).

Regarding `COc1ccc(C)cc1S(=O)(=O)N(CC(=O)NC1CCCC1)c1ccc(F)cc1`, in the experiment on Escherichia coli [17], the AC50 was 37.2 µM (active).

For `COc1c(N2CCN(C(S)=NCc3ccccc3)C(C)C2)c(F)cc2c(=O)c(C(=O)O)cn(C3CC3)c12` (centres undefined), the IC50 on NS3 was 14.9 µM (not active); in experiment [18] it was 5.55 µM (active). The AC50 at DNA topoisomerase was 27.8 µM (active).

As to `CC(=O)c1ccc(NC(=O)CCC(=O)OCC(=O)c2cccc([N+](=O)[O-])c2)cc1`, on Beta-galactosidase, the EC50 was > 40 µM (inactive). Further, the IC50 in experiment [19] was 34.5 µM (not active).

Values taken from ChEMBL document CHEMBL1201862, “PubChem BioAssay data set” (2004).
